From patent US20150342234A1, “Steviol Glycoside Compositions Sensory Properties” (Evolva SA, priority 2012, published 2015)

Tests used:
[1] = tested on: panel of 9 tasters (8 trained sensory panellists and 1 Evolve employee); experiment: Sensory evaluation by rapid profiling protocol, blinded samples, two replicates; type: in vivo; settings: for Sweetness build Fl. mean score / Sweetness onset Fl. mean score: after 1st sip, mean of Rep 1 and Rep 2, 0.0385% w/v in mineral water; for Sweetness build Fl. mean score / Sweetness onset Fl. mean score / Acid At. mean score / Artificial sweetness At. mean score / Bitter At. mean score / Overall Sweetness At. mean score / liquorice At. mean score / Acid Fl. mean score / Artificial sweetness Fl. mean score / Bitter Fl. mean score / Liquorice FL mean score / Overall Sweetness Fl. mean score / Body/ thickness Mf. mean score / Mouth coating Mf. mean score / Mouth drying Mf. mean score / Mouth watering Mf. mean score / Tingling Mf. mean score: 0-100 scale; for Acid At. mean score / Artificial sweetness At. mean score / Bitter At. mean score / Overall Sweetness At. mean score / liquorice At. mean score: aftertaste; for Acid At. mean score / Artificial sweetness At. mean score / Bitter At. mean score / Overall Sweetness At. mean score / liquorice At. mean score / Acid Fl. mean score / Artificial sweetness Fl. mean score / Bitter Fl. mean score / Liquorice FL mean score / Overall Sweetness Fl. mean score / Body/ thickness Mf. mean score / Mouth coating Mf. mean score / Mouth drying Mf. mean score / Mouth watering Mf. mean score / Tingling Mf. mean score: mean of 2 replicates, 0.0385% w/v; for Acid Fl. mean score / Artificial sweetness Fl. mean score / Bitter Fl. mean score / Liquorice FL mean score / Overall Sweetness Fl. mean score: flavor; for Acid Fl. mean score / Artificial sweetness Fl. mean score / Bitter Fl. mean score / Liquorice FL mean score / Overall Sweetness Fl. mean score / Body/ thickness Mf. mean score: after second and third sip; for Body/ thickness Mf. mean score / Mouth coating Mf. mean score / Mouth drying Mf. mean score / Mouth watering Mf. mean score / Tingling Mf. mean score: mouthfeel
Method: (§1) A sensory evaluation of the sample isolated in Example 5 was conducted by a commercial consumer research and sensory analysis company, using a rapid profiling protocol. The sensory profile of the yeast fermented Reb A product was compared to that of a commercially available RebA product by a panel of 9 tasters (8 trained sensory panellists and 1 Evolve employee), over a two hour period. […] Both products were dissolved in Highland Springs bottled mineral water (Highland Spring Group, Blackford, Pertishire, United Kingdom) at 0.0385% w/v, which is approximately equivalent in sweetness to 8% sucrose.
After a break, the panelists were presented one blinded sample of the yeast-derived RebA solution and one blinded sample of the commercial RebA solution. Sample were presented in a balanced order to the panelists. For each blinded sample, panelists carried out the following tasting procedure. Panelists were instructed take one sip of the sample and score the Sweetness Build and Sweetness Onset attributes. A second and third sip of the sample were then taken, and panelists were instructed to score Flavor Attributes and Mouth Feel attribute Body/thickness. Each panelist then took a final sip of the sample and was asked to score Aftertaste and Mouth Sensations at 20 seconds and 120 seconds after the final sip.
All panellist scores were entered into a computer using Compusense® data collection software (Compusense, Guelph, Ontario, Canada). Agreed reference scores were marked on the scales as a guide. A rest period of 5 minutes duration was observed between samples and palate cleansers of Carr's® water crackers (Kellogg's, Battle Creek, Mich.) and Highland Spring bottled mineral water applied during this time.
After one replicate of testing had been completed, panelists discussed differences between products. Panelists thought there were some subtle differences between products but no new flavors, off flavors, or mouth sensations were experienced. It was therefore decided to carry out a second replicate testing of the two Reb A samples using the same vocabulary and different blinding codes. The same tasting procedure was used for the second replicate as that used for the first replicate.
Mean scores were calculated for each attribute and sample over the two replicates (Rep 1 and Rep 2). Table 16 provides the mean scores for each attribute. Scores in bold shown a statistically significant difference between the two RebA samples.

[2] = tested on: panel of 9 tasters (8 trained sensory panellists and 1 Evolve employee); experiment: Agreed reference intensity scores for the commercial Reb A reference sample (vocabulary determination); type: in vivo; settings: agreed approximate intensity score, 0-100 scale; 0.0385% w/v
Method: as §1
An appropriate vocabulary was determined using the commercial Reb A solution as a reference sample. As a starting point, the panel used an attribute vocabulary agreed to for previous sweetener sensory analyses, including sweetness onset time, sweetness build, sweetness, bitterness, etc. Panelists discussed and agreed which of the attributes were present in the reference sample and also agreed on approximate intensity scores on a 0-100 scale for each attribute. Table 15 describes each characteristic that was assessed and how each characteristic was scored for the reference sample.

[3] = first block (20 seconds after final sip)
[4] = second block (120 seconds after final sip)

## C=C1C[C@@]23CC[C@H]4[C@@](C)(CCC[C@@]4(C)C(=O)O[C@@H]4O[C@H](CO)[C@@H](O)[C@H](O)[C@H]4O)[C@@H]2CC[C@]1(O[C@@H]1O[C@H](CO)[C@@H](O)[C@H](O[C@@H]2O[C@H](CO)[C@@H](O)[C@H](O)[C@H]2O)[C@H]1O[C@@H]1O[C@H](CO)[C@@H](O)[C@H](O)[C@H]1O)C3 [Commercial RebA, rebaudioside A]
[1]
  Sweetness build Fl. mean score: 34.5
  Sweetness onset Fl. mean score: 5.6
  Acid Fl. mean score: 10.6
  Artificial sweetness Fl. mean score: 54.0
  Bitter Fl. mean score: 20.7
  Liquorice FL mean score: 18.0
  Overall Sweetness Fl. mean score: 61.7
  Body/ thickness Mf. mean score: 39.4
[1]; [3]
  Acid At. mean score: 8.5
  Artificial sweetness At. mean score: 40.8
  Bitter At. mean score: 22.1
  Overall Sweetness At. mean score: 52.8
  liquorice At. mean score: 21.1
  Mouth coating Mf. mean score: 27.4
  Mouth drying Mf. mean score: 40.1
  Mouth watering Mf. mean score: 10.9
  Tingling Mf. mean score: 13.0
[1]; [4]
  Acid At. mean score: 8.9
  Artificial sweetness At. mean score: 32.6
  Bitter At. mean score: 20.6
  Overall Sweetness At. mean score: 49.6
  liquorice At. mean score: 16.3
  Mouth coating Mf. mean score: 26.3
  Mouth drying Mf. mean score: 42.7
  Mouth watering Mf. mean score: 14.7
  Tingling Mf. mean score: 12.9
[1]; time to peak in sweetness intensity, 95% confidence level
  sweetness build score compared with the yeast derived RebA sample: significantly longer
[2]
  Acidic (Flavor/Aftertaste) Score after 3 d sip (20 sec): 10
  Acidic (Flavor/Aftertaste) Score after 3 d sip (2 min): 10
  Acidic (Flavor/Aftertaste) Score after 3 d sip (immediate): 10
  Artificial sweetness (Flavor/Aftertaste) Score after 3 d sip (20 sec): 35
  Artificial sweetness (Flavor/Aftertaste) Score after 3 d sip (2 min): 20
  Artificial sweetness (Flavor/Aftertaste) Score after 3 d sip (immediate): 55
  Bitter (Flavor/Aftertaste) Score after 3 d sip (20 sec): 20
  Bitter (Flavor/Aftertaste) Score after 3 d sip (2 min): 20
  Bitter (Flavor/Aftertaste) Score after 3 d sip (immediate): 10
  Body/thickness (Mouthfeel) Score after 3 d sip (immediate): 40
  Liquorice (Flavor/Aftertaste) Score after 3 d sip (20 sec): 35
  Liquorice (Flavor/Aftertaste) Score after 3 d sip (2 min): 30
  Liquorice (Flavor/Aftertaste) Score after 3 d sip (immediate): 30
  Mouth coating (Mouthfeel) Score after 3 d sip (20 sec): 30
  Mouth coating (Mouthfeel) Score after 3 d sip (2 min): 30
  Mouth drying (Mouthfeel) Score after 3 d sip (20 sec): 35
  Mouth drying (Mouthfeel) Score after 3 d sip (2 min): 35
  Mouth watering (Mouthfeel) Score after 3 d sip (20 sec): 0
  Mouth watering (Mouthfeel) Score after 3 d sip (2 min): 20
  Overall Sweetness (Flavor/Aftertaste) Score after 3 d sip (20 sec): 50
  Overall Sweetness (Flavor/Aftertaste) Score after 3 d sip (2 min): 50
  Overall Sweetness (Flavor/Aftertaste) Score after 3 d sip (immediate): 70
  Sweetness build (Flavor) Score after 1st sip: 30
  Sweetness onset (Flavor) Score after 1st sip: 5
  Tingling (Mouthfeel) Score after 3 d sip (20 sec): 10
  Tingling (Mouthfeel) Score after 3 d sip (2 min): 5

## C=C1C[C@@]23CC[C@H]4[C@@](C)(CCC[C@@]4(C)C(=O)O[C@@H]4O[C@H](CO)[C@@H](O)[C@H](O)[C@H]4O)[C@@H]2CC[C@]1(O[C@@H]1O[C@H](CO)[C@@H](O)[C@H](O[C@@H]2O[C@H](CO)[C@@H](O)[C@H](O)[C@H]2O)[C@H]1O[C@@H]1O[C@H](CO)[C@@H](O)[C@H](O)[C@H]1O)C3 [Yeast derived Reb A, rebaudioside A]
[1]
  Sweetness build Fl. mean score: 30.2
  Sweetness onset Fl. mean score: 5.5
  Acid Fl. mean score: 8.3
  Artificial sweetness Fl. mean score: 41.8
  Bitter Fl. mean score: 11.8
  Liquorice FL mean score: 17.2
  Overall Sweetness Fl. mean score: 58.5
  Body/ thickness Mf. mean score: 37.1
[1]; [3]
  Acid At. mean score: 6.9
  Artificial sweetness At. mean score: 33.8
  Bitter At. mean score: 17.2
  Overall Sweetness At. mean score: 49.6
  liquorice At. mean score: 19.2
  Mouth coating Mf. mean score: 28.9
  Mouth drying Mf. mean score: 40.8
  Mouth watering Mf. mean score: 10.1
  Tingling Mf. mean score: 9.8
[1]; [4]
  Acid At. mean score: 5.5
  Artificial sweetness At. mean score: 30.0
  Bitter At. mean score: 18.1
  Overall Sweetness At. mean score: 46.2
  liquorice At. mean score: 16.2
  Mouth coating Mf. mean score: 24.7
  Mouth drying Mf. mean score: 39.8
  Mouth watering Mf. mean score: 15.7
  Tingling Mf. mean score: 8.8
[1]; at 20 seconds
  artificial sweetness score compared with the commercial RebA sample: significantly less
[1]; at 20 seconds, not statistically significantly different
  bitter score compared with the commercial RebA sample: lower
[1]; panellist reports
  off flavors: no reports of off flavors
